{"source": "patent US6356845B1", "about": "“Crystallization and structure determination of Staphylococcus aureus UDP-N-acetylenolpyruvylglucosamine reductase (S. aureus MurB)” (priority 1999, dated 2002)", "origin": "cited, not measured here", "target": "T1, S. aureus MurB (Staphylococcus aureus, UniProt P61431)", "T1 construct": "His6; made in house; host or cells: E. coli K12S (F' lacIq), plasmid pQE-10 murB obtained from Human Genome Sciences", "conditions": "read-out: Km for EP-UDPGlcNAc with S. aureus MurB; substrate Km; S. Swaney, personal communication", "data": [{"smiles": "C=C(O[C@H]1[C@H](O)[C@@H](CO)O[C@H](OP(=O)(O)OP(=O)(O)OC[C@H]2O[C@@H](n3ccc(=O)[nH]c3=O)[C@H](O)[C@@H]2O)[C@@H]1NC(C)=O)C(=O)O", "note": "[EP-UDPGlcNAc, Uridine diphospho-N-acetylglucosamine enolpyruvate]", "values": [{"measurement": "Km", "value": 15, "unit": "µM"}]}]}
